# Measurements taken from patent US20020058049A1, “Stable ophthalmic preparation” (priority 2000, published 2002).
# Experiments:
# [1] = Percent unoprostone isopropyl absorbed by bottle (PP vs LDPE) at three storage temperatures; type: physicochemical
# Procedure: (§1) 0.15 wt % unoprostone isopropyl ester (a typical prostaglandin analogue) solution in an isotonic solution containing mannitol and edetate disodium is prepared. The solution also contains 0.015 wt % benzalkonium chloride as a preservative. The solution is placed in a polypropylene bottle and a polyethylene bottle, which bottles have 7.5 ml void volume, and 5 ml of the solution is placed in each bottle. The bottles have air-tight caps. The polypropylene bottle is molded from REXENE PP23M2 polypropylene and the polyethylene bottle is produced from ALATHON 2025 […] polyethylene (LDPE), which is available from DuPont. The bottles are placed in controlled environment at 40° C. and ambient humidity, and the concentration of unoprostone is periodically measured using HPLC.
# Example 1 is repeated except that three different temperatures are used to store the samples. As put forth in Table 3, the percent unoprostone isopropyl absorbed by polypropylene is much lower than LDPE. This is particularly significant in that the lower absorption at higher temperatures enables the preparation of the present invention to meet current FDA stability requirements without refrigeration.
# [2] = Long-term stability of unoprostone in polypropylene bottles at 25° C., 40% relative humidity; type: physicochemical; details: PP bottle
# Procedure: as §1
# The unoprostone solution is placed in the polypropylene bottles, as described in Example 1, and placed in storage at 25° C. with 40% relative humidity. The stability over time of unoprostone in the polypropylene bottles is measured.
smiles,measurement,setting,value
"CCCCCCCC(=O)CC[C@@H]1[C@@H](C/C=C\CCCC(=O)OC(C)C)[C@@H](O)C[C@H]1O [Unoprostone, unoprostone isopropyl ester]",% Unoprostone Absorbed,"[1]; LDPE bottle, 12 mo. at 5° C.",3.11%
same,% Unoprostone Absorbed,"[1]; LDPE bottle, 12 mo. at 25° C.",4.76%
same,% Unoprostone Absorbed,"[1]; LDPE bottle, 12 mo. at 30° C.",5.70%
same,% Unoprostone Absorbed,"[1]; PP bottle, 12 mo. at 5° C.",0.00%
same,% Unoprostone Absorbed,"[1]; PP bottle, 12 mo. at 25° C.",0.98%
same,% Unoprostone Absorbed,"[1]; PP bottle, 12 mo. at 30° C.",1.98%
same,% Unoprostone Isopropyl (Active),[2]; 3 mo.,101.3%
same,% Unoprostone Isopropyl (Active),[2]; 6 mo.,101.3%
same,% Unoprostone Isopropyl (Active),[2]; 9 mo.,101.3%
same,% Unoprostone Isopropyl (Active),[2]; 18 mo.,101.3%
same,% Unoprostone Isopropyl (Active),[2]; Initial,101.3%
same,degradation in concentration over time,[2]; over eighteen months,no measurable degradation
